According to patent US11053235B2, “Substituted 1,4-dihydropyrimidines for the treatment of HBV infection or HBV-induced diseases” (Janssen Sciences Ireland Unlimited Company, priority 2018, dated 2021):

Experiments:
HBV = assay: Anti-viral assay in HepG2.2.15 cells: HBV inhibitory activity (HBV DNA in culture medium by q-PCR); type: cell-based; details: Hepatitis B virus, HepG2.2.15, 144 h, HepG2.2.15 cells, 6 days treatment, HBV DNA in culture medium by q-PCR, highest concentration 10 uM; read-out: EC50
Method in brief: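 HepG2.2.15 cells seeded at 40,000/well in 2% FBS medium, dosed next day for 6 days (medium refreshed once midway); 8-point 3-fold dilutions from 10 uM top. HBV DNA in culture medium extracted and quantified by q-PCR; EC50 calculated from dose-response.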

[1] = Cytotoxicity determination in HepG2.2.15 cells (CCK-8); type: cell-based; details: human, 6 days treatment, CCK-8, highest concentration 100 uM
Method in brief: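 HepG2.2.15 cells seeded at 5,000 cells/well in 2% FBS medium and exposed to compounds for 6 days (medium refreshed once), 8 three-fold dilutions from 100 uM. Viability read by CCK-8 after 2.5 h at 37 °C, absorbance 450 nm with 630 nm reference; CC50 calculated.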

Question: What does the source list for `CCOC(=O)C1=C(C2CCN(c3ncc(CC(=O)O)cn3)CC2)NC(c2nccs2)=NC1c1cccc(F)c1C` (single isomer, unassigned) [II-3-B, 2-(2-(4-(5-(ethoxycarbonyl)-6-(3-fluoro-2-methylphenyl)-2-(thiazol-2-yl)-3,6-dihydropyrimidin-4-yl)piperidin-1-yl)pyrimidin-5-yl)acetic Acid]?
Answer: EC50 (HBV): < 0.0046 µM; CC50 at 6 days [1]: 4.22 µM

Question: Which results are given for `CCOC(=O)C1=C(C2CCN(c3ncc(C)c(C(=O)O)n3)CC2)NC(c2nccs2)=NC1c1ccc(F)cc1C` (single isomer, unassigned) [II-4-B, 2-(4-(5-(Ethoxycarbonyl)-6-(4-fluoro-2-methylphenyl)-2-(thiazol-2-yl)-3,6-dihydropyrimidin-4-yl)piperidin-1-yl)-5-methylpyrimidine-4-carboxylic Acid]?
Answer: EC50 (HBV): 0.019 µM; CC50 at 6 days [1]: 16.3 µM

Question: For `COC(=O)C1=C(C2CCN(c3ncc(CC(=O)O)cn3)CC2)NC(c2nccs2)=NC1c1cccc(F)c1C` (single isomer, unassigned) [II-6-B, 2-(2-(4-(6-(3-Fluoro-2-methylphenyl)-5-(methoxycarbonyl)-2-(thiazol-2-yl)-3,6-dihydropyrimidin-4-yl)piperidin-1-yl)pyrimidin-5-yl)acetic Acid], which EC50 (HBV) is on record?
Answer: Its EC50 is 0.0057 µM.

Question: What about the CC50 at 6 days [1] of the same compound?
Answer: Its CC50 at 6 days is 5.42 µM.

Question: What does the source list for `COC(=O)C1=C(C2CCN(c3ncc(C)c(C(=O)O)n3)CC2)NC(c2nccs2)=NC1c1ccc(F)cc1C` (single isomer, unassigned) [II-7-B, 2-(4-(6-(4-fluoro-2-methylphenyl)-5-(methoxycarbonyl)-2-(thiazol-2-yl)-3,6-dihydropyrimidin-4-yl)piperidin-1-yl)-5-methylpyrimidine-4-carboxylic Acid]?
Answer: EC50 (HBV): 0.041 µM; CC50 at 6 days [1]: 28.4 µM

Question: Which results are given for `COC(=O)C1=C(C2CCN(c3ncc(C)c(C(=O)O)n3)CC2)NC(c2nccs2)=NC1c1cccc(F)c1Cl` (single isomer, unassigned) [II-8-B, 2-(4-(6-(2-Chloro-3-fluorophenyl)-5-(methoxycarbonyl)-2-(thiazol-2-yl)-3,6-dihydropyrimidin-4-yl)piperidin-1-yl)-5-methylpyrimidine-4-carboxylic Acid]?
Answer: EC50 (HBV): 0.0081 µM; CC50 at 6 days [1]: 19 µM

Question: For `COC(=O)C1=C(C2CCN(c3ncc(CC(=O)O)cn3)CC2)NC(c2nccs2)=NC1c1cccc(F)c1Cl` (single isomer, unassigned) [II-9-B, 2-(2-(4-(6-(2-Chloro-3-fluorophenyl)-5-(methoxycarbonyl)-2-(thiazol-2-yl)-3,6-dihydropyrimidin-4-yl)piperidin-1-yl)pyrimidin-5-yl)acetic Acid], which EC50 (HBV) is on record?
Answer: The EC50 was < 0.0046 µM.

Question: And the CC50 at 6 days [1]?
Answer: The CC50 at 6 days was 4.9 µM.

Question: With `COC(=O)C1=C(C2CCN(c3ncc(C(=O)O)s3)CC2)NC(c2nccs2)=NC1c1cccc(F)c1Cl` (single isomer, unassigned) [II-10-B, 2-(4-(6-(2-Chloro-3-fluorophenyl)-5-(methoxycarbonyl)-2-(thiazol-2-yl)-3,6-dihydropyrimidin-4-yl)piperidin-1-yl)thiazole-5-carboxylic Acid] as the compound, how does the EC50 (HBV) read?
Answer: Its EC50 is 0.0092 µM.

Question: What about the CC50 at 6 days [1] of the same compound?
Answer: The CC50 at 6 days was 17.2 µM.

Question: Which results are given for `COC(=O)C1=C(C2CCN(C(=O)c3cn[nH]c3)CC2)NC(c2nccs2)=NC1c1ccc(F)cc1Cl` (single isomer, unassigned) [II-11-X, Methyl 6-(1-(1H-pyrazole-4-carbonyl)piperidin-4-yl)-4-(2-chloro-4-fluorophenyl)-2-(thiazol-2-yl)-1,4-dihydropyrimidine-5-carboxylate]?
Answer: EC50 (HBV): 0.058 µM; CC50 at 6 days [1]: 16.2 µM

Question: Which results are given for `COC(=O)C1=C(C2CCN(C(=O)c3cnn(C)c3)CC2)NC(c2nccs2)=NC1c1ccc(F)cc1Cl` (single isomer, unassigned) [II-12-B, Methyl 4-(2-chloro-4-fluorophenyl)-6-(1-(1-methyl-1H-pyrazole-4-carbonyl)piperidin-4-yl)-2-(thiazol-2-yl)-1,4-dihydropyrimidine-5-carboxylate]?
Answer: EC50 (HBV): 0.066 µM; CC50 at 6 days [1]: 25.5 µM

Question: With `COC(=O)C1=C(C2CCN(c3nccc(CC(=O)O)n3)CC2)NC(c2nccs2)=NC1c1ccc(F)cc1Cl` (single isomer, unassigned) [II-13-A, 2-(2-(4-(6-(2-chloro-4-fluorophenyl)-5-(methoxycarbonyl)-2-(thiazol-2-yl)-3,6-dihydropyrimidin-4-yl)piperidin-1-yl)pyrimidin-4-yl)acetate] as the compound, how does the EC50 (HBV) read?
Answer: The EC50 was 0.19 µM.

Question: And the CC50 at 6 days [1]?
Answer: Its CC50 at 6 days is 24.4 µM.

Question: For `COC(=O)C1=C(C2CCN(c3ncc(C)c(C(=O)O)n3)CC2)NC(c2nccs2)=NC1c1ccc(F)cc1Cl` (single isomer, unassigned) [II-14-A, 2-(4-(6-(2-Chloro-4-fluorophenyl)-5-(methoxycarbonyl)-2-(thiazol-2-yl)-3,6-dihydropyrimidin-4-yl)piperidin-1-yl)-5-methylpyrimidine-4-carboxylic Acid], which EC50 (HBV) is on record?
Answer: The EC50 was 0.0081 µM.

Question: What about the CC50 at 6 days [1] of the same compound?
Answer: Its CC50 at 6 days is 32.1 µM.

Question: Which EC50 (HBV) does the source give for `COC(=O)C1=C(C2CCN(c3ncc(CC(=O)O)cn3)CC2)NC(c2nccs2)=NC1c1ccc(F)cc1Cl` (single isomer, unassigned) [II-15-A, 2-(2-(4-(6-(2-Chloro-4-fluorophenyl)-5-(methoxycarbonyl)-2-(thiazol-2-yl)-3,6-dihydropyrimidin-4-yl)piperidin-1-yl)pyrimidin-5-yl)acetic Acid] here?
Answer: Its EC50 is 0.0055 µM.

Question: And the CC50 at 6 days [1]?
Answer: The CC50 at 6 days was 14 µM.

Question: For `COC(=O)C1=C(C2CCN(c3ncc(C(=O)O)c(C)n3)CC2)NC(c2nccs2)=NC1c1ccc(F)cc1Cl` (single isomer, unassigned) [II-16-B, 2-(4-(6-(2-Chloro-4-fluorophenyl)-5-(methoxycarbonyl)-2-(thiazol-2-yl)-3,6-dihydropyrimidin-4-yl)piperidin-1-yl)-4-methylpyrimidine-5-carboxylic Acid], which EC50 (HBV) is on record?
Answer: The EC50 was 0.0069 µM.

Question: What about the CC50 at 6 days [1] of the same compound?
Answer: The CC50 at 6 days was 7.48 µM.

Question: Which EC50 (HBV) does the source give for `COC(=O)C1=C(C2CCN(c3ncc(C(=O)O)cn3)CC2)NC(c2nccs2)=NC1c1ccc(F)cc1Cl` (single isomer, unassigned) [II-17-B, 2-(4-(6-(2-chloro-4-fluorophenyl)-5-(methoxycarbonyl)-2-(thiazol-2-yl)-3,6-dihydropyrimidin-4-yl)piperidin-1-yl)pyrimidine-5-carboxylic Acid] here?
Answer: The EC50 was 0.014 µM.

Question: What about the CC50 at 6 days [1] of the same compound?
Answer: The CC50 at 6 days was > 100 µM.

Question: For `COC(=O)C1=C(C2CCN(c3nc(C(=O)O)co3)CC2)NC(c2nccs2)=NC1c1ccc(F)cc1Cl` (single isomer, unassigned) [II-18-B, 2-(4-(6-(2-Chloro-4-fluorophenyl)-5-(methoxycarbonyl)-2-(thiazol-2-yl)-3,6-dihydropyrimidin-4-yl)piperidin-1-yl)oxazole-4-carboxylic Acid], which EC50 (HBV) is on record?
Answer: The EC50 was 0.089 µM.

Question: What about the CC50 at 6 days [1] of the same compound?
Answer: Its CC50 at 6 days is 70 µM.

Question: For `COC(=O)C1=C(C2CCN(c3ncc(C(=O)O)s3)CC2)NC(c2nccs2)=NC1c1ccc(F)cc1Cl` (single isomer, unassigned) [II-19-A, 2-(4-(6-(2-Chloro-4-fluorophenyl)-5-(methoxycarbonyl)-2-(thiazol-2-yl)-3,6-dihydropyrimidin-4-yl)piperidin-1-yl)thiazole-5-carboxylic Acid], which EC50 (HBV) is on record?
Answer: Its EC50 is 0.0064 µM.

Question: And the CC50 at 6 days [1]?
Answer: The CC50 at 6 days was 19.3 µM.

Question: Which EC50 (HBV) does the source give for `CCOC(=O)C1=C(C2CCN(c3ncc(C)c(C(=O)O)n3)CC2)NC(c2nccs2)=NC1c1ccc(F)cc1Cl` (single isomer, unassigned) [II-20-B, 2-(4-(6-(2-Chloro-4-fluorophenyl)-5-(ethoxycarbonyl)-2-(thiazol-2-yl)-3,6-dihydropyrimidin-4-yl)piperidin-1-yl)-5-methylpyrimidine-4-carboxylic Acid] here?
Answer: Its EC50 is 0.015 µM.

Question: And the CC50 at 6 days [1]?
Answer: Its CC50 at 6 days is 16.8 µM.
